Reference: PubChem BioAssay AID1963838 (Molecular Pharmacology Branch, DTP, NCI, 2024)

Test system: 855422-203-R-J1-PDC complex spheroid viability
Assay: Anticancer human tumor 855422-203-R-J1-PDC patient-derived bladder carcinoma cell line growth inhibition [POLQ]
Conditions: for IC50: curve of first compound; for viability, T/C: stronger effect = lower value
In short: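 Three-cell-type spheroids modelling solid tumor plus stroma served as the readout system; POL inhibitors were tested individually and in combination, concentration ranges set by clinical Cmax where known.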

[1] = second compound 0.0316 µM, first compound 0.0316 µM
[2] = second compound 0.0316 µM, first compound 0.1 µM
[3] = second compound 0.0316 µM, first compound 0.316 µM
[4] = second compound 0.0316 µM, first compound 1 µM
[5] = second compound 0.0316 µM, first compound 3.16 µM
[6] = second compound 0.0316 µM, first compound 10 µM
[7] = second compound 0.1 µM, first compound 0.0316 µM
[8] = second compound 0.1 µM, first compound 0.1 µM
[9] = second compound 0.1 µM, first compound 0.316 µM
[10] = second compound 0.1 µM, first compound 1 µM
[11] = second compound 0.1 µM, first compound 3.16 µM
[12] = second compound 0.1 µM, first compound 10 µM
[13] = second compound 0.316 µM, first compound 0.0316 µM
[14] = second compound 0.316 µM, first compound 0.1 µM
[15] = second compound 0.316 µM, first compound 0.316 µM
[16] = second compound 0.316 µM, first compound 1 µM
[17] = second compound 0.316 µM, first compound 3.16 µM
[18] = second compound 0.316 µM, first compound 10 µM
[19] = second compound 1 µM, first compound 0.0316 µM
[20] = second compound 1 µM, first compound 0.1 µM
[21] = second compound 1 µM, first compound 0.316 µM
[22] = second compound 1 µM, first compound 1 µM
[23] = second compound 1 µM, first compound 3.16 µM
[24] = second compound 1 µM, first compound 10 µM
[25] = second compound 3.16 µM, first compound 0.0316 µM
[26] = second compound 3.16 µM, first compound 0.1 µM
[27] = second compound 3.16 µM, first compound 0.316 µM
[28] = second compound 3.16 µM, first compound 1 µM
[29] = second compound 3.16 µM, first compound 3.16 µM
[30] = second compound 3.16 µM, first compound 10 µM
[31] = second compound 10 µM, first compound 0.0316 µM
[32] = second compound 10 µM, first compound 0.1 µM
[33] = second compound 10 µM, first compound 0.316 µM
[34] = second compound 10 µM, first compound 1 µM
[35] = second compound 10 µM, first compound 3.16 µM
[36] = second compound 10 µM, first compound 10 µM
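Also: spheroids exposed to compounds for seven days before readout.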

`CC1COCCN1c1cc(C2(S(C)(=N)=O)CC2)nc(-c2ccnc3[nH]ccc23)n1` (stereo not drawn) + Cc1cccc(N(C)C(=O)C2C(O)CCN2c2nc(C)cc(C(F)(F)F)c2C#N)c1 gave an IC50 (second compound 0.0316 µM) of 2.56 µM, an IC50 (second compound 0.1 µM) of 2.66 µM and an IC50 (second compound 0.316 µM) of 2.5 µM. For the same compound, the IC50 (second compound 1 µM) was 2.49 µM, the IC50 (second compound 3.16 µM) was 2.37 µM and the IC50 (second compound 10 µM) was 2.14 µM. For the same compound, the viability, T/C [1] was 112%, the viability, T/C [2] was 97.3% and the viability, T/C [3] was 107%. For the same compound, the viability, T/C [4] was 106%, the viability, T/C [5] was 37.4% and the viability, T/C [6] was 12.5%. The viability, T/C [7] was 94.7%, the viability, T/C [8] was 107% and the viability, T/C [9] was 115%. The viability, T/C [10] was 100%, the viability, T/C [11] was 41.1% and the viability, T/C [12] was 10.7%. It also gave a viability, T/C [13] of 96.3%, a viability, T/C [14] of 106% and a viability, T/C [15] of 101%. For the same compound, the viability, T/C [16] was 107%, the viability, T/C [17] was 36.6% and the viability, T/C [18] was 10.6%. The viability, T/C [19] was 110%, the viability, T/C [20] was 123% and the viability, T/C [21] was 115%. The viability, T/C [22] was 103%, the viability, T/C [23] was 36% and the viability, T/C [24] was 10.8%. The viability, T/C [25] was 105%, the viability, T/C [26] was 119% and the viability, T/C [27] was 94.5%. For the same compound, the viability, T/C [28] was 105%, the viability, T/C [29] was 31.4% and the viability, T/C [30] was 10.2%. It also gave a viability, T/C [31] of 103%, a viability, T/C [32] of 102% and a viability, T/C [33] of 105%. It also gave a viability, T/C [34] of 97.5%, a viability, T/C [35] of 25.7% and a viability, T/C [36] of 14.1%.
`CCCS(=O)(=O)Nc1ccc(F)c(C(=O)c2c[nH]c3ncc(-c4ccc(Cl)cc4)cc23)c1F` + Cc1cccc(N(C)C(=O)C2C(O)CCN2c2nc(C)cc(C(F)(F)F)c2C#N)c1 gave an IC50 (second compound 0.0316 µM) of 6.14 µM, an IC50 (second compound 0.1 µM) of 6.18 µM and an IC50 (second compound 0.316 µM) of 6.52 µM. The IC50 (second compound 1 µM) was 6.04 µM, the IC50 (second compound 3.16 µM) was 6.48 µM and the IC50 (second compound 10 µM) was 6.72 µM. For the same compound, the viability, T/C [1] was 104%, the viability, T/C [2] was 131% and the viability, T/C [3] was 99.9%. The viability, T/C [4] was 104%, the viability, T/C [5] was 109% and the viability, T/C [6] was 6.85%. For the same compound, the viability, T/C [7] was 98%, the viability, T/C [8] was 119% and the viability, T/C [9] was 99%. It also gave a viability, T/C [10] of 103%, a viability, T/C [11] of 121% and a viability, T/C [12] of 8.21%. The viability, T/C [13] was 103%, the viability, T/C [14] was 125% and the viability, T/C [15] was 101%. The viability, T/C [16] was 110%, the viability, T/C [17] was 115% and the viability, T/C [18] was 14.1%. The viability, T/C [19] was 97%, the viability, T/C [20] was 111% and the viability, T/C [21] was 96%. For the same compound, the viability, T/C [22] was 107%, the viability, T/C [23] was 123% and the viability, T/C [24] was 5.7%. For the same compound, the viability, T/C [25] was 97.8%, the viability, T/C [26] was 133% and the viability, T/C [27] was 139%. The viability, T/C [28] was 127%, the viability, T/C [29] was 128% and the viability, T/C [30] was 4.79%. It also gave a viability, T/C [31] of 109%, a viability, T/C [32] of 134% and a viability, T/C [33] of 139%. For the same compound, the viability, T/C [34] was 180%, the viability, T/C [35] was 142% and the viability, T/C [36] was 2.01%.
`CCc1cc2c(N3CCc4c(cc(Cn5ccnc5)cc4-c4cn(C)nc4C(F)(F)F)C3=O)ccnc2c(OC)n1` + Cc1cccc(N(C)C(=O)C2C(O)CCN2c2nc(C)cc(C(F)(F)F)c2C#N)c1 was tested, and the IC50 (second compound 0.0316 µM) was 7.34 µM, the IC50 (second compound 0.1 µM) was over 10 µM and the IC50 (second compound 0.316 µM) was over 10 µM. For the same compound, the IC50 (second compound 1 µM) was over 10 µM, the IC50 (second compound 3.16 µM) was 9.2 µM and the IC50 (second compound 10 µM) was 9.15 µM. The viability, T/C [1] was 111%, the viability, T/C [2] was 154% and the viability, T/C [3] was 110%. The viability, T/C [4] was 96.3%, the viability, T/C [5] was 70.9% and the viability, T/C [6] was 42.2%. For the same compound, the viability, T/C [7] was 99.9%, the viability, T/C [8] was 147% and the viability, T/C [9] was 113%. The viability, T/C [10] was 85.7%, the viability, T/C [11] was 79.6% and the viability, T/C [12] was 47.5%. It also gave a viability, T/C [13] of 102%, a viability, T/C [14] of 151% and a viability, T/C [15] of 107%. It also gave a viability, T/C [16] of 107%, a viability, T/C [17] of 80.4% and a viability, T/C [18] of 54.2%. It also gave a viability, T/C [19] of 125%, a viability, T/C [20] of 162% and a viability, T/C [21] of 110%. For the same compound, the viability, T/C [22] was 90%, the viability, T/C [23] was 79.7% and the viability, T/C [24] was 51.5%. For the same compound, the viability, T/C [25] was 138%, the viability, T/C [26] was 166% and the viability, T/C [27] was 103%. For the same compound, the viability, T/C [28] was 115%, the viability, T/C [29] was 74.7% and the viability, T/C [30] was 47.8%. It also gave a viability, T/C [31] of 116%, a viability, T/C [32] of 141% and a viability, T/C [33] of 158%. For the same compound, the viability, T/C [34] was 112%, the viability, T/C [35] was 88.3% and the viability, T/C [36] was 46.3%.
`COc1ccc([C@@H](O)c2cc(-c3ncnc4cc(N5CCOCC5)ccc34)c(F)cc2Cl)nn1` + Cc1cccc(N(C)C(=O)C2C(O)CCN2c2nc(C)cc(C(F)(F)F)c2C#N)c1 showed an IC50 (second compound 0.0316 µM) of 5.34 µM, an IC50 (second compound 0.1 µM) of 5.16 µM and an IC50 (second compound 0.316 µM) of 4.25 µM. The IC50 (second compound 1 µM) was 3.05 µM, the IC50 (second compound 3.16 µM) was 4.18 µM and the IC50 (second compound 10 µM) was 2.37 µM. For the same compound, the viability, T/C [1] was 98.5%, the viability, T/C [2] was 109% and the viability, T/C [3] was 107%. The viability, T/C [4] was 84.7%, the viability, T/C [5] was 66.1% and the viability, T/C [6] was 32.7%. It also gave a viability, T/C [7] of 93.1%, a viability, T/C [8] of 101% and a viability, T/C [9] of 83.8%. The viability, T/C [10] was 87.7%, the viability, T/C [11] was 63.9% and the viability, T/C [12] was 30.1%. For the same compound, the viability, T/C [13] was 101%, the viability, T/C [14] was 111% and the viability, T/C [15] was 104%. The viability, T/C [16] was 82.3%, the viability, T/C [17] was 58.1% and the viability, T/C [18] was 31.2%. The viability, T/C [19] was 98.8%, the viability, T/C [20] was 97.2% and the viability, T/C [21] was 99.7%. The viability, T/C [22] was 86.5%, the viability, T/C [23] was 49% and the viability, T/C [24] was 26.3%. For the same compound, the viability, T/C [25] was 108%, the viability, T/C [26] was 106% and the viability, T/C [27] was 89%. For the same compound, the viability, T/C [28] was 79.5%, the viability, T/C [29] was 56.2% and the viability, T/C [30] was 29.6%. For the same compound, the viability, T/C [31] was 96.4%, the viability, T/C [32] was 105% and the viability, T/C [33] was 96.5%. For the same compound, the viability, T/C [34] was 66.8%, the viability, T/C [35] was 47% and the viability, T/C [36] was 28.8%.
